Experimental data from paper PMC11876601 (Molecular Systems Biology, 2025).
“And” between values parts separate entries of the source, which are not always exact repeats. Identical values can stand only once. Like-named read-outs stand apart in the source and are kept apart here.

Columns and labels:
MiaPaCa-2 = assay: cells; design: ATPlite luminescence viability of PDAC cell lines, 11-dose single-agent curves, 4-parameter fit; settings: Homo sapiens, MIA PaCa-2, 72 h, read-out: EC50 [nM]
Method in brief: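 cells (1000 to 5000 per well) seeded 24 h before drug addition in a combination screen at 0.2% final DMSO. Controls were drug-free wells (negative) and 5 µM staurosporine (positive).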

SYK = settings: cited from earlier work
SIK2 = settings: cited from earlier work
PLK4 = settings: cited from earlier work
LATS1 = settings: cited from earlier work
CAMK2G = settings: cited from earlier work
PANC-1 cells = assay: Cell proliferation assay, GEM + ATR inhibitor (Incucyte confluence, 72 h); settings: for EC50: Homo sapiens; for Curve bottom / Curve top: PANC-1, plateau of fitted curve, ratio drug/vehicle confluence;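 on EC50: in combination experiments GEM is titrated while ATRi is held at a fixed sub-EC50 dose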;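 on all read-outs here: PANC-1 confluence at 72 h taken as raw values, not normalized to starting confluence, with each experiment run in triplicate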
Experimental: (§1) Cells were seeded at 5000 cells/well into 96-well flat bottom plates (Eppendorf) and allowed to attach overnight. […] Cells were incubated for 72 h at 37 °C and 5% CO2. Cell confluence readouts at 72 h were either normalized to their initial confluence using the Incucyte software (AsPC-1) or used without prior normalization (all others). […] Each experiment was performed in triplicates, the data was plotted as mean ± standard deviation (s.d.).

Suit2-07 cells = assay: as above; type: cell-based, human; settings: Suit2-07; for EC50: Homo sapiens, 72 h; for Response: R1; for Curve bottom / Curve top: plateau of fitted curve, ratio drug/vehicle confluence;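 on all read-outs here: Suit2-07 cells grown in 96-well plates at 37 °C, 5% CO2, raw 72 h confluence taken without normalizing to starting confluence, each experiment done in triplicate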
Experimental: as §1

[1] = 4 cell line mix lysate, Kinobeads y, ref Klaeger et al. (2017)
[2] = 5 cell line mix lysate, Kinobeads ε, ref Reinecke et al. (2023), read-out: KDapp
[3] = 5 cell line mix lysate, Kinobeads ε, ref Reinecke et al. (2023)
[4] = SIK2, 5 cell line mix lysate, Kinobeads ε, ref Reinecke et al. (2023)
[5] = PLK4, 5 cell line mix lysate, Kinobeads ε, ref Reinecke et al. (2023)
[6] = LATS1, 5 cell line mix lysate, Kinobeads ε, ref Reinecke et al. (2023)
[7] = experiment ATRi (ATR inhibitor alone)

SMILES: C[C@]12O[C@H](C[C@]1(O)CO)n1c3ccccc3c3c4c(c5c6ccccc6n2c5c31)CNC4=O [Lestaurtinib]
- EC50 (MiaPaCa-2): 275 nM

SMILES: COc1cc(N2CCC(N3CCN(C)CC3)CC2)ccc1Nc1ncc(Cl)c(Nc2ccccc2P(C)(C)=O)n1 [Brigatinib]
- EC50 (MiaPaCa-2): 177 nM
- Kd (SYK; [2]): 1570 nM
- EC50 (SYK; [3]): 1870 nM
- pKDapp (SYK; [3]): 5.81
- EC50 (SIK2; [4]): 46.5 nM
- pKDapp (SIK2; [4]): 7.62
- Kd (SIK2; SIK2, 5 cell line mix lysate, Kinobeads ε, ref Reinecke et al. (2023), read-out: KDapp): 24.1 nM
- EC50 (PLK4; [5]): 95.2 nM
- pKDapp (PLK4; [5]): 7.31
- Kd (PLK4; PLK4, 5 cell line mix lysate, Kinobeads ε, ref Reinecke et al. (2023), read-out: KDapp): 48.5 nM
- EC50 (LATS1; [6]): 3550 nM
- pKDapp (LATS1; [6]): 5.55
- Kd (LATS1; LATS1, 5 cell line mix lysate, Kinobeads ε, ref Reinecke et al. (2023), read-out: KDapp): 2790 nM
- Kd (CAMK2G; [2]): 93.2 nM
- EC50 (CAMK2G; [3]): 429 nM
- pKDapp (CAMK2G; [3]): 7.03

SMILES: CNCc1ccc(-c2cc(-c3nc(-c4ccc(S(=O)(=O)C(C)C)cc4)cnc3N)on2)cc1 [Berzosertib]
- EC50 (PANC-1 cells; PANC-1, 72 h, read-out: EC50 mean [nM], PANC-1, experiment ATRi (ATR inhibitor alone), mean of replicates): 22200 nM
- EC50 (PANC-1 cells; PANC-1, PANC-1, experiment ATRi (ATR inhibitor alone), replicates R1-R3): 31800 nM
- EC50 (PANC-1 cells; PANC-1, PANC-1, experiment GEM+ATRi_dose1, replicates R1-R3): 4.75 nM
- EC50 (PANC-1 cells; PANC-1, PANC-1, experiment GEM+ATRi_dose2, replicates R1-R3): 6.05 nM
- EC50 (PANC-1 cells; PANC-1, PANC-1, experiment GEM+ATRi_dose3, replicates R1-R3): 3.25 nM
- EC50 (PANC-1 cells; PANC-1, read-out: EC50 mean [nM], PANC-1, experiment ATRi (ATR inhibitor alone), mean of replicates): 22200 nM
- EC50 (PANC-1 cells; PANC-1, read-out: EC50 mean [nM], PANC-1, experiment GEM+ATRi_dose1, mean of replicates): 4.43 nM
- EC50 (PANC-1 cells; PANC-1, read-out: EC50 mean [nM], PANC-1, experiment GEM+ATRi_dose2, mean of replicates): 5.92 nM
- EC50 (PANC-1 cells; PANC-1, read-out: EC50 mean [nM], PANC-1, experiment GEM+ATRi_dose3, mean of replicates): 4.05 nM
- EC50 (PANC-1 cells; PANC-1, read-out: pEC50, PANC-1 (converted), experiment ATRi (ATR inhibitor alone), -log10 of EC50 [M]): 31600 nM
- EC50 (PANC-1 cells; PANC-1, read-out: pEC50, PANC-1 (converted), experiment GEM+ATRi_dose1, replicates R1-R3, -log10 of EC50 [M]): 4.79 nM
- EC50 (PANC-1 cells; PANC-1, read-out: pEC50, PANC-1 (converted), experiment GEM+ATRi_dose2, replicates R1-R3, -log10 of EC50 [M]): 6.03 nM
- EC50 (PANC-1 cells; PANC-1, read-out: pEC50, PANC-1 (converted), experiment GEM+ATRi_dose3, replicates R1-R3, -log10 of EC50 [M]): 3.24 nM
- Curve bottom (PANC-1 cells; [7]): 1.01 and 0.99
- Curve top (PANC-1 cells; experiment GEM+ATRi_dose1): 0.60 and 0.57
- Curve top (PANC-1 cells; experiment GEM+ATRi_dose2): 0.57 and 0.55
- Curve bottom (PANC-1 cells; experiment GEM+ATRi_dose3): 0.93 and 0.91
- Curve top (PANC-1 cells; experiment GEM+ATRi_dose3): 0.55 and 0.54
- EC50 (Suit2-07 cells; experiment ATRi (ATR inhibitor alone), -log10 of EC50 [M], read-out: pEC50 (converted)): 8.32e-07 M
- EC50 (Suit2-07 cells; experiment ATRi (ATR inhibitor alone), mean (one replicate), read-out: EC50 mean): 8.26e-07 M
- EC50 (Suit2-07 cells; experiment ATRi (ATR inhibitor alone), replicate R1, read-out: EC50): 8.26e-07 M
- Response (Suit2-07 cells; GEM+ATRi_dose1, GEM 0 nM + ATRi 10 nM, in % (unit assumed)): 98.77
- Response (Suit2-07 cells; GEM+ATRi_dose1, GEM 1 nM + ATRi 10 nM, in % (unit assumed)): 98.71
- Response (Suit2-07 cells; GEM+ATRi_dose1, GEM 3 nM + ATRi 10 nM, in % (unit assumed)): 96.04
- Response (Suit2-07 cells; GEM+ATRi_dose1, GEM 10 nM + ATRi 10 nM, in % (unit assumed)): 36.30
- Response (Suit2-07 cells; GEM+ATRi_dose1, GEM 30 nM + ATRi 10 nM, in % (unit assumed)): 15.43
- Response (Suit2-07 cells; GEM+ATRi_dose1, GEM 100 nM + ATRi 10 nM, in % (unit assumed)): 14.13
- Response (Suit2-07 cells; GEM+ATRi_dose1, GEM 300 nM + ATRi 10 nM, in % (unit assumed)): 12.00
- Response (Suit2-07 cells; GEM+ATRi_dose1, GEM 1000 nM + ATRi 10 nM, in % (unit assumed)): 12.45
- Response (Suit2-07 cells; GEM+ATRi_dose1, GEM 3000 nM + ATRi 10 nM, in % (unit assumed)): 11.51
- Response (Suit2-07 cells; GEM+ATRi_dose2, GEM 0 nM + ATRi 3 nM, in % (unit assumed)): 99.37
- Response (Suit2-07 cells; GEM+ATRi_dose2, GEM 1 nM + ATRi 3 nM, in % (unit assumed)): 98.07
- Response (Suit2-07 cells; GEM+ATRi_dose2, GEM 3 nM + ATRi 3 nM, in % (unit assumed)): 44.64
- Response (Suit2-07 cells; GEM+ATRi_dose2, GEM 10 nM + ATRi 3 nM, in % (unit assumed)): 20.67
- Response (Suit2-07 cells; GEM+ATRi_dose2, GEM 30 nM + ATRi 3 nM, in % (unit assumed)): 15.78
- Response (Suit2-07 cells; GEM+ATRi_dose2, GEM 100 nM + ATRi 3 nM, in % (unit assumed)): 12.95
- Response (Suit2-07 cells; GEM+ATRi_dose2, GEM 300 nM + ATRi 3 nM, in % (unit assumed)): 13.27
- Response (Suit2-07 cells; GEM+ATRi_dose2, GEM 1000 nM + ATRi 3 nM, in % (unit assumed)): 13.27
- Response (Suit2-07 cells; GEM+ATRi_dose2, GEM 3000 nM + ATRi 3 nM, in % (unit assumed)): 11.05
- Response (Suit2-07 cells; GEM+ATRi_dose3, GEM 0 nM + ATRi 30 nM, in % (unit assumed)): 92.60
- Response (Suit2-07 cells; GEM+ATRi_dose3, GEM 1 nM + ATRi 30 nM, in % (unit assumed)): 79.33
- Response (Suit2-07 cells; GEM+ATRi_dose3, GEM 3 nM + ATRi 30 nM, in % (unit assumed)): 33.65
- Response (Suit2-07 cells; GEM+ATRi_dose3, GEM 10 nM + ATRi 30 nM, in % (unit assumed)): 15.80
- Response (Suit2-07 cells; GEM+ATRi_dose3, GEM 30 nM + ATRi 30 nM): 15.08
- Response (Suit2-07 cells; GEM+ATRi_dose3, GEM 100 nM + ATRi 30 nM, in % (unit assumed)): 13.63
- Response (Suit2-07 cells; GEM+ATRi_dose3, GEM 300 nM + ATRi 30 nM, in % (unit assumed)): 12.25
- Response (Suit2-07 cells; GEM+ATRi_dose3, GEM 1000 nM + ATRi 30 nM, in % (unit assumed)): 9.74
- Response (Suit2-07 cells; GEM+ATRi_dose3, GEM 3000 nM + ATRi 30 nM, in % (unit assumed)): 10.10
- Curve bottom (Suit2-07 cells; [7]): 1.01
- Curve top (Suit2-07 cells; [7]): 0.09
- Response (Suit2-07 cells; experiment ATRi, ATRi 3 nM, GEM 0 nM, in % (unit assumed)): 98.72
- Response (Suit2-07 cells; experiment ATRi, ATRi 10 nM, GEM 0 nM, in % (unit assumed)): 98.54
- Response (Suit2-07 cells; experiment ATRi, ATRi 30 nM, GEM 0 nM, in % (unit assumed)): 98.42
- Response (Suit2-07 cells; experiment ATRi, ATRi 100 nM, GEM 0 nM, in % (unit assumed)): 98.94
- Response (Suit2-07 cells; experiment ATRi, ATRi 300 nM, GEM 0 nM, in % (unit assumed)): 89.08
- Response (Suit2-07 cells; experiment ATRi, ATRi 1000 nM, GEM 0 nM, in % (unit assumed)): 45.00
- Response (Suit2-07 cells; experiment ATRi, ATRi 3000 nM, GEM 0 nM, in % (unit assumed)): 16.95
- Response (Suit2-07 cells; experiment ATRi, ATRi 10000 nM, GEM 0 nM, in % (unit assumed)): 8.62
- Curve bottom (Suit2-07 cells; experiment GEM+ATRi_dose1): 1.01
- Curve top (Suit2-07 cells; experiment GEM+ATRi_dose1): 0.13
- Curve bottom (Suit2-07 cells; experiment GEM+ATRi_dose2): 1.03
- Curve top (Suit2-07 cells; experiment GEM+ATRi_dose2): 0.15
- Curve bottom (Suit2-07 cells; experiment GEM+ATRi_dose3): 0.95
- Curve top (Suit2-07 cells; experiment GEM+ATRi_dose3): 0.13
